In article PMC9898036, “VIP152 is a selective CDK9 inhibitor with pre-clinical in vitro and in vivo efficacy in chronic lymphocytic leukemia” (Leukemia, 2022):

Tests used:
Format in all cases: binding
[1] = target: EGFR(G719S) (Homo sapiens, UniProt P00533, G719S); assay: KINOMEscan: EGFR(G719S); conditions: 1000 nM, read-out: Percent Control
[2] = target: PKNB(M.tuberculosis) (Mycobacterium tuberculosis, UniProt P9WI81); assay: DiscoverX KINOMEscan kinase profiling; conditions: kinase PKNB(M.tuberculosis) (Entrez pknB); compound concentration 1000 nM; read-out: Percent Control
[3] = target: Serotonin (5-Hydroxytryptamine) 5-HT1A) (Homo sapiens, UniProt P08908); assay: Eurofins Diversity Panel; conditions: hum, Conc. 10 μM
[4] = target: Tachykinin NK1 (Homo sapiens, UniProt P25103); assay: Eurofins Diversity Panel; conditions: hum, Conc. 10 μM
[5] = target: GSK3B (Homo sapiens, UniProt P49841); assay: KINOMEscan: GSK3B; conditions: 1000 nM, read-out: Percent Control
Chain of GSK3B (P49841 whole entry): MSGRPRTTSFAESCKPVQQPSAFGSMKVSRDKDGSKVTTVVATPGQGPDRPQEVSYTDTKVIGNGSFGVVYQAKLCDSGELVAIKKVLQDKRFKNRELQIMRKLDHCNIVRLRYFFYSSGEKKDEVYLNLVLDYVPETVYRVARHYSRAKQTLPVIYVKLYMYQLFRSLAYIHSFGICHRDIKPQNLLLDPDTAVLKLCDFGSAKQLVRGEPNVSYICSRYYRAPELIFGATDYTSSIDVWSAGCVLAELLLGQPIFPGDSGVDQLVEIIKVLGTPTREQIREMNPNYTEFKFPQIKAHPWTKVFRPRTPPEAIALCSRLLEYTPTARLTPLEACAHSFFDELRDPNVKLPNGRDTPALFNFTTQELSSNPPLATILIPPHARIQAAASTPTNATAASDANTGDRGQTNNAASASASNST

[6] = target: CLK4 (Homo sapiens, UniProt Q9HAZ1); assay: KINOMEscan: CLK4; conditions: 1000 nM, read-out: Percent Control
Chain of CLK4 (Q9HAZ1 whole entry): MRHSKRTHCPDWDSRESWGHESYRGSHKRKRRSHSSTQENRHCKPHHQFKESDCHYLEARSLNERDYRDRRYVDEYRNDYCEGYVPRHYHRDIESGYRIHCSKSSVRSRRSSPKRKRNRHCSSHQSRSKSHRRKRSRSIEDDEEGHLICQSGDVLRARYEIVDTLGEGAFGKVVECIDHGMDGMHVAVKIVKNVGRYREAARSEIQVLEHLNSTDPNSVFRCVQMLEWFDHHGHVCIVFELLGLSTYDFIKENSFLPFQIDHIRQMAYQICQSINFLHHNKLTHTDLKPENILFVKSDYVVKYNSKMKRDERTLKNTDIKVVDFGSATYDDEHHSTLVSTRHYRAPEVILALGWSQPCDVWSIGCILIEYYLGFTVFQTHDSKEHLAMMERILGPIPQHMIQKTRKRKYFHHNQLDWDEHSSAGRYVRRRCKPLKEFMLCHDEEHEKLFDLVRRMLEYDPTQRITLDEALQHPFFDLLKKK

[7] = target: Adenosine A2A (Homo sapiens, UniProt P29274); assay: Eurofins Diversity Panel; conditions: hum, Conc. 10 μM
[8] = target: KIT-autoinhibited (Homo sapiens, UniProt P10721); assay: KINOMEscan: KIT-autoinhibited; conditions: 1000 nM, read-out: Percent Control
[9] = target: MAST1 (Homo sapiens, UniProt Q9Y2H9); assay: KINOMEscan: MAST1; conditions: 1000 nM, read-out: Percent Control
Chain of MAST1 (Q9Y2H9 whole entry): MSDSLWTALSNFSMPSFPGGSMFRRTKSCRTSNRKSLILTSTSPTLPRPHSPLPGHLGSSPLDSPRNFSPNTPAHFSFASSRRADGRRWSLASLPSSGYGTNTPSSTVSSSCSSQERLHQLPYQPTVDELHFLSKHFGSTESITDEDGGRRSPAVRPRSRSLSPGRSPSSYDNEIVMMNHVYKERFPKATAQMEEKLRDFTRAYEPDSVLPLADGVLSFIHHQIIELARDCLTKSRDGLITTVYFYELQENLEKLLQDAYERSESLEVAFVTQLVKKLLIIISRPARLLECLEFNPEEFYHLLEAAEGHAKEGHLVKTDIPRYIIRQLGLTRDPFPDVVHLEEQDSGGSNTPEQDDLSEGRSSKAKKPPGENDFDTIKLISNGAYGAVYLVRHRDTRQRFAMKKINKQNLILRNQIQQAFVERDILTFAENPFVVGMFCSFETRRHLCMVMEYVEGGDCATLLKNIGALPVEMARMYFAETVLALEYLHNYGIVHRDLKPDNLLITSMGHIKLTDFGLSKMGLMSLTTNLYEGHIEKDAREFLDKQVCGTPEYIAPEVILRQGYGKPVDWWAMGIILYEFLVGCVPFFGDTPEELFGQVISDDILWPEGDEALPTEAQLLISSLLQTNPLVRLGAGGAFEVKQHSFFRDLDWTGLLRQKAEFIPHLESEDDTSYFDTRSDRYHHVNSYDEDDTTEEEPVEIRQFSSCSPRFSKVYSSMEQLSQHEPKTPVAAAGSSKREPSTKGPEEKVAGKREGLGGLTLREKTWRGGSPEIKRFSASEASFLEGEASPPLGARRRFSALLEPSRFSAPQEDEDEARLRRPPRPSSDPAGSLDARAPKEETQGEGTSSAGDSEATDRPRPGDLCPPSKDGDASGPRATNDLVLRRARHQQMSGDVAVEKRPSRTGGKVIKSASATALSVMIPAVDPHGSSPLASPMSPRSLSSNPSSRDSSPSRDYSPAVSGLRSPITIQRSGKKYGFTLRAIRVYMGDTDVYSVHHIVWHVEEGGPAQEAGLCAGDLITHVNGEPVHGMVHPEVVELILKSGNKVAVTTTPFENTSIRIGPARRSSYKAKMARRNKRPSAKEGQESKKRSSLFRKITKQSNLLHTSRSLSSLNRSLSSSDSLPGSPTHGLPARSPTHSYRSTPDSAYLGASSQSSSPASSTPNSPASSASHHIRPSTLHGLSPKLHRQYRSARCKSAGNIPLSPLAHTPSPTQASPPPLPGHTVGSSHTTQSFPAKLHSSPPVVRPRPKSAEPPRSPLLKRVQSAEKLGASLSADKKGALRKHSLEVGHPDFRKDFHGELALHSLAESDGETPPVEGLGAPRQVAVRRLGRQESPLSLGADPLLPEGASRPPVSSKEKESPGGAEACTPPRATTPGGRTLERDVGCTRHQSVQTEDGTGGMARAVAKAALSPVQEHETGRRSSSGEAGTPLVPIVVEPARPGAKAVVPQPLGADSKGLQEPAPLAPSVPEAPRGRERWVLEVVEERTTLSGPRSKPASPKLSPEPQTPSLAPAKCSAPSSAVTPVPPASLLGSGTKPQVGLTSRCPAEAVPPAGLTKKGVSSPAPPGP

[10] = target: MRCKB (Homo sapiens, UniProt Q9Y5S2); assay: KINOMEscan: MRCKB; conditions: 1000 nM, read-out: Percent Control
[11] = target: Muscarinic M1 (Homo sapiens, UniProt P11229); assay: Eurofins Diversity Panel; conditions: hum, Conc. 10 μM
[12] = target: AURKB (Homo sapiens, UniProt Q96GD4); assay: KINOMEscan: AURKB; conditions: 1000 nM, read-out: Percent Control
Chain of AURKB (Q96GD4 whole entry): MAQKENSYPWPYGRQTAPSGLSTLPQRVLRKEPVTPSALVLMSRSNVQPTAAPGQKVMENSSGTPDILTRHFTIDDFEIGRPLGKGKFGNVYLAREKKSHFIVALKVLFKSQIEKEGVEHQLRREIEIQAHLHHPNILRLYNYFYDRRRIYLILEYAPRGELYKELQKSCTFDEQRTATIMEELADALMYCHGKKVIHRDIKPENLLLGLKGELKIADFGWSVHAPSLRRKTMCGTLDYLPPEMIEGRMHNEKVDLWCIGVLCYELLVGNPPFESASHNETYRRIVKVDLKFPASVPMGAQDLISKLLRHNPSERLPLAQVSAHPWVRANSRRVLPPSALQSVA

[13] = target: Glucocorticoid (Homo sapiens, UniProt P04150); assay: Eurofins Diversity Panel; conditions: hum, Conc. 10 μM
Chain of Glucocorticoid (P04150 whole entry): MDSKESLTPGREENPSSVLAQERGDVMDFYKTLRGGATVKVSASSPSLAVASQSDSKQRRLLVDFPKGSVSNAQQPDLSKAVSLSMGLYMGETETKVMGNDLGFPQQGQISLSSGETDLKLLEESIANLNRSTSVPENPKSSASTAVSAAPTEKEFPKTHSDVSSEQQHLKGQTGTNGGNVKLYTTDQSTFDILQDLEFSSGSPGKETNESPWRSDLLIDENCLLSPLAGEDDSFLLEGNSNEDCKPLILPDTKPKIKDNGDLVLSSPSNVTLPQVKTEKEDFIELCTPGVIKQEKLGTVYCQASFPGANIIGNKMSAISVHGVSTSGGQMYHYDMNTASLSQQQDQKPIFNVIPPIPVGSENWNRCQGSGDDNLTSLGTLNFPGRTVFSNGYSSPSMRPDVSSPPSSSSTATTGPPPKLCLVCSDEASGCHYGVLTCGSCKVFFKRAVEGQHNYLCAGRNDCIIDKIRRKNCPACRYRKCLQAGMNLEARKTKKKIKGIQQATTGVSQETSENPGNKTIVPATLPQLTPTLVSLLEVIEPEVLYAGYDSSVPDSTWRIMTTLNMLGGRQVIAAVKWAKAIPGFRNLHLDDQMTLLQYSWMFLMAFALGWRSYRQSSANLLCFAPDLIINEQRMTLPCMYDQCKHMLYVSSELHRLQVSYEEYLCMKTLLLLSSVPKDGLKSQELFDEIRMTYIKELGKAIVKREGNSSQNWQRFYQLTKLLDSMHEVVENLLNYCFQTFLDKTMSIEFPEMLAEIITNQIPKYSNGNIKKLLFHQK

[14] = target: ULK2 (Homo sapiens, UniProt Q8IYT8); assay: KINOMEscan: ULK2; conditions: 100 nM, read-out: Percent Control
[15] = target: STK36 (Homo sapiens, UniProt Q9NRP7); assay: KINOMEscan: STK36; conditions: 100 nM, read-out: Percent Control
[16] = system: Glutamate, NMDA, Agonism; assay: Eurofins Diversity Panel; conditions: rat, Conc. 10 μM
[17] = target: CDK9 (Homo sapiens, UniProt P50750); assay: KINOMEscan: CDK9
Chain of CDK9 (P50750 whole entry): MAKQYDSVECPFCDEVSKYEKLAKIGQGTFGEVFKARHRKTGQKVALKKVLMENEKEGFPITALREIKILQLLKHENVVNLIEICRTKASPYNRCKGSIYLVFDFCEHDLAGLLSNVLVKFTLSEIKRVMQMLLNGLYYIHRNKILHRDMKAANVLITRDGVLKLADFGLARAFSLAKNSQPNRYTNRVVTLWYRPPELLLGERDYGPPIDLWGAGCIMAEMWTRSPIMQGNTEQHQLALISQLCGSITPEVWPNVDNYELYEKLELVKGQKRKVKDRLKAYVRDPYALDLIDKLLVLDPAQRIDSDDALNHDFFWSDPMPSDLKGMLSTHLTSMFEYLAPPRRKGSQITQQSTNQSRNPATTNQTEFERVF
Description: The structure and synthesis of VIP152 were recently described by Lücking et al.. (Fig. 1A); however, the selectivity of the molecule in cellular systems has yet to be explored. […] We also performed this experiment at 1000 nM, where CDK9 was inhibited at 99%. […] We found a strong concordance between our data and those of Lücking when comparing the most inhibited kinases. Potential off-target effects of VIP152 were next tested in vitro at a concentration of 10 µM for off-target activity against a broad range of receptors, transporters, ion channels, and enzymes (n = 138) using the Eurofins Diversity Panel.
Kinomescan Kinase Profiling Assay
Kinomescan Assay was performed at DiscoverRX and described in Fabian, et al. 2005, Nat.
Biotechnol. In brief, kinases were produced and subsequently tagged with DNA for qPCR detection.
Streptavidin-coated magnetic beads were bound to biotinylated kinase ligands to serve as a solid support.
VIP152 was dissolved in DMSO and tested across a 10 serial threefold dilution set and compared to a test compound and a DMSO control. Kinases which were inhibited by VIP152 would not be bound to the solid-support resulting in decreased substrate for the qPCR reaction. Kinome map was produced via TreeSpot Analysis from DiscoverRX. […]
NanoBRETTM Target Engagement Assay Protocol […]
Complete 20X NanoBRET Tracer Reagent was prepared with Tracer Dilution Buffer and dispensed at a ratio of 1:20 Reagent to cells in the tube. The cell

[18] = target: GRK7 (Homo sapiens, UniProt Q8WTQ7); assay: KINOMEscan: GRK7; conditions: 1000 nM, read-out: Percent Control
Chain of GRK7 (Q8WTQ7 whole entry): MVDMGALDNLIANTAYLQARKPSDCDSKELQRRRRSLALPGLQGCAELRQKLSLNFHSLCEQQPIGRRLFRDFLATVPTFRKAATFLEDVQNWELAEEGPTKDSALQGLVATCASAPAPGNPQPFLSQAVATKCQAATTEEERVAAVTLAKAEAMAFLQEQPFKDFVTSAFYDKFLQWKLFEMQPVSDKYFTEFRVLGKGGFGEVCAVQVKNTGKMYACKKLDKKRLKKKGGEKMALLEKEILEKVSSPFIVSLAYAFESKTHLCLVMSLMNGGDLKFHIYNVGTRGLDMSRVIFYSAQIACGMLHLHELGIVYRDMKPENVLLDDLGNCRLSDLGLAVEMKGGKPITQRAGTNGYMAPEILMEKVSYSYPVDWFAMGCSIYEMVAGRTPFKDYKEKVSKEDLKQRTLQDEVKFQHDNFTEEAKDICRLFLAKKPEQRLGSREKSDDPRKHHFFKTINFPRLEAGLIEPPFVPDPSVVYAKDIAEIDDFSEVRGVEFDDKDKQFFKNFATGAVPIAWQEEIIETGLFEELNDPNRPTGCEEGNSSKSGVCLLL

[19] = target: DYRK2 (Homo sapiens, UniProt Q92630); assay: KINOMEscan: DYRK2; conditions: 1000 nM, read-out: Percent Control
[20] = target: IRAK3 (Homo sapiens, UniProt Q9Y616); assay: KINOMEscan: IRAK3; conditions: 1000 nM, read-out: Percent Control
[21] = target: Glutamate, NMDA, Glycine (Rattus norvegicus, UniProt P35439); assay: Eurofins Diversity Panel; conditions: Conc. 10 μM
[22] = target: RPS6KA4(Kin.Dom.1-N-terminal) (Homo sapiens, UniProt O75676); assay: KINOMEscan: RPS6KA4(Kin.Dom.1-N-terminal); conditions: 100 nM, read-out: Percent Control
[23] = target: MLCK (Homo sapiens, UniProt Q32MK0); assay: KINOMEscan: MLCK; conditions: 1000 nM, read-out: Percent Control
[24] = system: GABAA, Muscimol, Central; assay: Eurofins Diversity Panel; conditions: rat, Conc. 10 μM
[25] = target: RPS6KA5(Kin.Dom.2-C-terminal) (Homo sapiens, UniProt O75582); assay: KINOMEscan: RPS6KA5(Kin.Dom.2-C-terminal); conditions: 100 nM, read-out: Percent Control
[26] = target: RIPK5 (Homo sapiens, UniProt Q6XUX3); assay: KINOMEscan: RIPK5; conditions: 100 nM, read-out: Percent Control
[27] = target: MST2 (Homo sapiens, UniProt Q13188); assay: KINOMEscan: MST2; conditions: 1000 nM, read-out: Percent Control
Chain of MST2 (Q13188 whole entry): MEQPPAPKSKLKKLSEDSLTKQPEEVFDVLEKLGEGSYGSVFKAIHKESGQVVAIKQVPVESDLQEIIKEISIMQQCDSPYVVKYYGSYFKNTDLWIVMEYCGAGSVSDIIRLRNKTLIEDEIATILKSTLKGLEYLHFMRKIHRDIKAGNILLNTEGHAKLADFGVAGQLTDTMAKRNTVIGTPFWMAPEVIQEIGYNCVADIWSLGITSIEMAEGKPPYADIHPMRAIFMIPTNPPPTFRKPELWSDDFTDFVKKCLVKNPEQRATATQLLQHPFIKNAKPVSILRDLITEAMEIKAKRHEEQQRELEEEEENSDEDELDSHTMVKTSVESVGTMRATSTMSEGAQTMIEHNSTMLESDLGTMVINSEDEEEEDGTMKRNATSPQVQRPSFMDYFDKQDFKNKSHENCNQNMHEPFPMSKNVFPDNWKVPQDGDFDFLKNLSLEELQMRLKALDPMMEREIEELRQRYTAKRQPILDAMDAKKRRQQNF

[28] = target: CHEK2 (Homo sapiens, UniProt O96017); assay: KINOMEscan: CHEK2; conditions: 1000 nM, read-out: Percent Control
[29] = target: T1, α2C receptor (Homo sapiens, UniProt P18825); assay: Eurofins Diversity Panel: adrenergic α2C receptor
T1 construct: purchased Eurofins

[30] = target: WEE2 (Homo sapiens, UniProt P0C1S8); assay: KINOMEscan: WEE2; conditions: 100 nM, read-out: Percent Control
[31] = target: FLT3(N841I) (Homo sapiens, UniProt P36888, N841I); assay: KINOMEscan: FLT3(N841I); conditions: 1000 nM, read-out: Percent Control
[32] = target: CSF1R-autoinhibited (Homo sapiens, UniProt P07333); assay: KINOMEscan: CSF1R-autoinhibited; conditions: 1000 nM, read-out: Percent Control

In the case of `COc1cc(F)ccc1-c1cc(Nc2cc(CS(C)(=N)=O)ccn2)ncc1F` (stereo not drawn) [VIP152], the remaining binding at 1 µM [1] is reported as 86%, the remaining binding at 1 µM [2] is reported as 100% and the inhibition at 10 µM [3] is reported as 13%. The inhibition at 10 µM [4] was 19%, the remaining binding at 1 µM [5] was 11% and the remaining binding at 1 µM [6] was 88%. The inhibition at 10 µM [7] was 22%, the remaining binding at 1 µM [8] was 100% and the remaining binding at 1 µM [9] was 81%. It also gave a remaining binding at 1 µM [10] of 59%, an inhibition at 10 µM [11] of -10% and a remaining binding at 1 µM [12] of 57%. It also gave an inhibition at 10 µM [13] of 30%, a remaining binding at 0.1 µM [14] of 100% and a remaining binding at 0.1 µM [15] of 100%. The “% Inh.” value [16] was 3%, the “inhibition of CDK9 greater than that of CDK7” value ([17]; 100 nM) was 7 fold and the inhibition at 0.1 µM ([17]; 100 nM, read-out: inhibition of CDK9 activity compared with control) was 95.3%. The inhibition at 1 µM ([17]; 1000 nM) was 99%, the remaining binding at 0.1 µM ([17]; CDK9, 100 nM, read-out: Percent Control) was 4.7% and the remaining binding at 1 µM ([17]; CDK9, 1000 nM, read-out: Percent Control) was 1%. The remaining binding at 1 µM [18] was 87%, the remaining binding at 1 µM [19] was 62% and the remaining binding at 1 µM [20] was 52%. For the same molecule, the inhibition at 10 µM [21] was 12%, the remaining binding at 0.1 µM [22] was 100% and the remaining binding at 1 µM [23] was 100%. For the same molecule, the “% Inh.” value [24] was -3%, the remaining binding at 0.1 µM [25] was 100% and the remaining binding at 0.1 µM [26] was 83%. The remaining binding at 1 µM [27] was 96%, the remaining binding at 1 µM [28] was 77% and the IC50 [29] was 340 nM. The remaining binding at 0.1 µM [30] was 100%, the remaining binding at 1 µM [31] was 54% and the remaining binding at 1 µM [32] was 73%.
